Experiments:
Type in all cases: in vivo
[1] = tested on: Peripheral Sensory Neuropathy Induced by Vincristine in Mice; assay: von Frey test, vincristine-induced peripheral sensory neuropathy; conditions: vincristine 0.2 mg/kg once a week alone, compared with control group; three days after the administration
Source text: (§1) The mice in the three groups in the above (1) were put in a cage and a filament having a strength of 0.16 g was pressed on the plantar surface of the leg to measure the number of times (a score) of avoidance response.
(§2) In the present test, the mice were divided into three groups by a difference in test objects. As in Example 1, male Balb/c mice of 6 to 7 weeks old were used. The mice were divided into a total of three groups, a control group, a vincristine administration group, and a vincristine and Lentinus edodes mycelium extract administration group (vincristine+Lentinus edodes mycelium extract administration group).
(§3) Vincristine was administered to each mouse once a day at a dose of 0.2 mg/kg. Further, the Lentinus edodes mycelium extract was administered to each mouse once a day at a dose of 2 g/kg.
Further, the number of times of administration was set to once a week (on Day 0, Day 7, and Day 14) for vincristine and daily (from Day 0 to Day 15) for the Lentinus edodes mycelium extract in both the von Frey test and the cold plate test below.
Evaluation was performed in the same manner as in the test with oxaliplatin in Example 1. Referring to FIG. 5, the horizontal axis indicates an elapsed time after administration (days) and the vertical axis indicates the avoidance response (scores). Open circles with a solid line represent the control group. Filled circles with a solid line represent the group in which only vincristine was administered. Open squares with a dash line represent the group in which vincristine and the Lentinus edodes mycelium extract were administered at the same time (vincristine+Lentinus edodes mycelium extract administration group). When the difference with the control group was determined to be significant using a significance level of 5%, the data were marked by “*”.
(§4) In the present test, the mice were divided into six groups by a difference in test objects. As in Example 1, male Balb/c mice of 6 to 7 weeks old were used. […]

[2] = tested on: Peripheral Sensory Neuropathy Induced by Vincristine in Mice; assay: cold plate test, vincristine-induced peripheral sensory neuropathy; conditions: vincristine 0.2 mg/kg once a day alone; Day 3
Experimental: (§5) The effect of the Lentinus edodes mycelium extract on the paresthesia to cold stimulation was tested by performing the cold plate test. The mice in the three groups in the above (1) were put on a cold plate set to 10° C. and a response time for avoidance (a latency) was measured. The shorter latency means that the mouse avoids the cold stimulation of the cold plate more.
In the present test, the mice were divided into three groups by a difference in test objects. As in Example 1, male Balb/c mice of 6 to 7 weeks old were used. The mice were divided into a total of three groups, a control group, a vincristine
administration group, and a vincristine and Lentinus edodes mycelium extract administration group (vincristine+Lentinus edodes mycelium extract administration group).
as §3
Evaluation was performed in the same manner as in the test with oxaliplatin in Example 1. Referring to FIG. 6, the horizontal axis indicates the elapsed time after administration (days) and the vertical axis indicates the avoidance response time (seconds). Open circles with a solid line represent the control group. Filled circles with a solid line represent the group in which only vincristine was administered. Open squares with a dash line represent the group in which vincristine and the Lentinus edodes mycelium extract were administered at the same time (vincristine+Lentinus edodes mycelium extract administration group). When the difference with the control group was determined to be significant using a significance level of 5%, the data were marked by “*”.
as §4

[3] = tested on: Peripheral Sensory Neuropathy Induced by Bortezomib in Mice; assay: von Frey test, bortezomib-induced peripheral sensory neuropathy; conditions: bortezomib 1 mg/kg once a week alone, compared with control group; three days after the administration
Source text: as §1
as §2, with “bortezomib” for “vincristine”, “(bortezomib+Lentinus” for “(vincristine+Lentinus”
(§6) Bortezomib was administered to each mouse once a day at a dose of 1 mg/kg. Further, the Lentinus edodes mycelium extract was administered to each mouse once a day at a dose of 2 g/kg.
Further, the number of times of administration was set to once a week (on Day 0, Day 7, and Day 14) for bortezomib and daily (from Day 0 to Day 15) for the Lentinus edodes mycelium extract in both the von Frey test and the cold plate test below.
Evaluation was performed in the same manner as in the test with oxaliplatin in Example 1. Referring to FIG. 7, the horizontal axis indicates an elapsed time after administration (days) and the vertical axis indicates the avoidance response (scores). Open circles with a solid line represent the control group. Filled circles with a solid line represent the group in which only bortezomib was administered. Open squares with a dash line represent the group in which bortezomib and the Lentinus edodes mycelium extract were administered at the same time (bortezomib+Lentinus edodes mycelium extract administration group). When the difference with the control group was determined to be significant using a significance level of 5%, the data were marked by “*”.
as §4

[4] = tested on: Peripheral Sensory Neuropathy Induced by Bortezomib in Mice; assay: cold plate test, bortezomib-induced peripheral sensory neuropathy; conditions: bortezomib 1 mg/kg once a day alone; Day 3
Experimental: as §5
as §2, with “bortezomib” for “vincristine”, “(bortezomib+Lentinus” for “(vincristine+Lentinus”
as §6
Evaluation was performed in the same manner as in the test with oxaliplatin in Example 1. Referring to FIG. 8, the horizontal axis indicates the elapsed time after administration (days) and the vertical axis indicates the avoidance response time (seconds). Open circles with a solid line represent the control group. Filled circles with a solid line represent the group in which only bortezomib was administered. Open squares with a dash line represent the group in which bortezomib and the Lentinus edodes mycelium extract were administered at the same time (bortezomib+Lentinus edodes mycelium extract administration groups). When the difference with the control group was determined to be significant using a significance level of 5%, the data were marked by “*”.
as §4

[5] = tested on: Peripheral Sensory Neuropathy Induced by Oxaliplatin in Mice; assay: von Frey test, oxaliplatin-induced peripheral sensory neuropathy; conditions: oxaliplatin 6 mg/kg once a week alone, compared with control group; 0.16 g filament
Experimental: (§7) Male Balb/c mice of 6 to 7 weeks old were used. The mice were divided into three groups: a control group, an oxaliplatin administration group, and an oxaliplatin and Lentinus edodes mycelium extract administration group (oxaliplatin+Lentinus edodes mycelium extract administration group). Oxaliplatin was administered to each mouse once a day at a dose of 6 mg/kg. Further, the Lentinus edodes mycelium extract was administered to each mouse once a day at a dose of 2 g/kg.
(§8) Further, the number of times of administration was set to once a week (on Day 0, Day 7, and Day 14) for oxaliplatin and daily (from Day 0 to Day 15) for the Lentinus edodes mycelium extract in both the von Frey test and the cold plate test below.
The higher number of times of avoidance means that the mouse avoids the stimulation by the filament more. […] When the difference with the control group was determined to be significant using a significance level of 5%, the data were marked by “*”.

[6] = tested on: Peripheral Sensory Neuropathy Induced by Oxaliplatin in Mice; assay: cold plate test, oxaliplatin-induced peripheral sensory neuropathy; conditions: oxaliplatin 6 mg/kg once a week alone; Day 3; cold plate 10° C.
Experimental: as §7, §8
Oxaliplatin was administered to each mouse once a day at a dose of 6 mg/kg. Further, the Lentinus edodes mycelium extract was administered to each mouse once a day at a dose of 2 g/kg three days or six days after the administration of oxaliplatin. These groups are referred to as “Lentinus edodes mycelium extract 3-day delayed administration group” and “Lentinus edodes mycelium extract 6-day delayed administration group”, respectively.
Further, groups in which duloxetine was administered after the administration of oxaliplatin were prepared for comparison.

SMILES: CC[C@]1(O)C[C@H]2CN(CCc3c([nH]c4ccccc34)[C@@](C(=O)OC)(c3cc4c(cc3OC)N(C=O)[C@H]3[C@@](O)(C(=O)OC)[C@H](OC(C)=O)[C@]5(CC)C=CCN6CC[C@]43[C@@H]65)C2)C1 [vincristine]
- avoidance response (scores), von Frey test [1]: significantly increased
- latency to the cold stimulation (avoidance response time), cold plate test [2]: significantly reduced

SMILES: CC(C)C[C@H](NC(=O)[C@H](Cc1ccccc1)NC(=O)c1cnccn1)B(O)O [bortezomib]
- avoidance response (scores), von Frey test [3]: significantly increased
- latency to the cold stimulation (avoidance response time), cold plate test [4]: significantly reduced

SMILES: O=C1[O][Pt]2([NH][C@@H]3CCCC[C@H]3[NH]2)[O]C1=O [oxaliplatin]
- avoidance response (scores), von Frey test [5]: significantly increased
- latency to the cold stimulation (avoidance response time), cold plate test [6]: significantly reduced

— patent US11793845B2, “Composition for ameliorating peripheral sensory neuropathy” (KINKI UNIVERSITY, priority 2016, dated 2023)
